Molecular target: Menin-MLL (Homo sapiens (Human), UniProt O00255)
Assay: Determination of binding constants (Ki) to Menin-MLL (HTRF)
Conditions: HTRF, 0.25 nM H-FL-Menin, 3.2 nM FITC-MLL-4-43, 24 hr incubation; for Ki: read-out: Menin-MLL Ki HTRF Assay: Ki

Menin-MLL, sequence (O00255 whole entry): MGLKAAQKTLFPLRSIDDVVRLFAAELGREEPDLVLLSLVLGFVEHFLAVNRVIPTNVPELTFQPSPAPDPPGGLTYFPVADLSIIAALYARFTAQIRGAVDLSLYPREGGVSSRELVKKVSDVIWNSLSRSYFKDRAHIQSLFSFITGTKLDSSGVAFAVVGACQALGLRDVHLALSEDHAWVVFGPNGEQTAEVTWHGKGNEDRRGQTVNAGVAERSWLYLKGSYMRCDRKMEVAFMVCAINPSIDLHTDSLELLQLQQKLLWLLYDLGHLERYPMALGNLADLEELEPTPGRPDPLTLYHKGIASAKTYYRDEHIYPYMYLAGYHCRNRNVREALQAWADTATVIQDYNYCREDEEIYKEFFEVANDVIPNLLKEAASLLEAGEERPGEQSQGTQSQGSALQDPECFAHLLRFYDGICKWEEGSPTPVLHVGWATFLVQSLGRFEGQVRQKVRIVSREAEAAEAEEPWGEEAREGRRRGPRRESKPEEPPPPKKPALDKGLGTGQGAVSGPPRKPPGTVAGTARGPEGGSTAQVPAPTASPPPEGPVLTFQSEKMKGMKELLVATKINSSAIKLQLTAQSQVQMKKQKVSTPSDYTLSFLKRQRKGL

Structure (SMILES): CCN(C(=O)c1cc(F)ccc1Oc1cncnc1N1CC2(CCN(C[C@@H]3CC[C@@H](NS(=O)(=O)N4CC(F)(F)C4)CO3)CC2)C1)C(C)C [Compound 70, 2-((4-(7-(((2S,5R)-5-((3,3-Difluoroazetidine)-1-sulfonamido)tetrahydro-2H-pyran-2-yl)methyl)-2,7-diazaspiro[3.5]nonan-2-yl)pyrimidin-5-yl)oxy)-N-ethyl-5-fluoro-N-isopropylbenzamide]
- EC50: < 50 nM
- Ki: < 1 nM

Structure (SMILES): CCN(C(=O)c1cc(F)ccc1Oc1cncnc1N1CC2(CCN(C[C@@H]3CC[C@@H](NS(N)(=O)=O)CO3)CC2)C1)C(C)C [Compound 73, N-Ethyl-5-fluoro-N-isopropyl-2-((4-(7-(((2S,5R)-5-(sulfamoylamino)tetrahydro-2H-pyran-2-yl)methyl)-2,7-diazaspiro[3.5]nonan-2-yl)pyrimidin-5-yl)oxy)benzamide]
- Ki: < 1 nM

Structure (SMILES): CCN(C(=O)c1cc(F)ccc1Oc1cncnc1N1CC2(CCN(C[C@@H]3CC[C@@H](NS(=O)(=O)c4ccc(=O)n(C)c4)CO3)CC2)C1)C(C)C [Compound 74, N-Ethyl-5-fluoro-N-isopropyl-2-((4-(7-(((2S,5R)-5-((1-methyl-6-oxo-1,6-dihydropyridine)-3-sulfonamido)tetrahydro-2H-pyran-2-yl)methyl)-2,7-diazaspiro[3.5]nonan-2-yl)pyrimidin-5-yl)oxy)benzamide]
- Ki: < 1 nM

Structure (SMILES): CC(C)N(C(=O)c1cc(F)ccc1Oc1cncnc1N1CC2(CCN(C[C@@H]3CC[C@@H](NS(=O)(=O)N(C)C)CO3)CC2)C1)C(C)C [Compound 77, 2-((4-(7-(((2S,5R)-5-((N,N-Dimethylsulfamoyl)amino)tetrahydro-2H-pyran-2-yl)methyl)-2,7-diazaspiro[3.5]nonan-2-yl)pyrimidin-5-yl)oxy)-5-fluoro-N,N-diisopropylbenzamide]
- EC50: < 50 nM
- Ki: < 1 nM

Structure (SMILES): CC(C)N(C(=O)c1cc(F)ccc1Oc1cncnc1N1CC2(CCN(C[C@@H]3CC[C@@H](NS(=O)(=O)C4CCOCC4)CO3)CC2)C1)C(C)C [Compound 79]
- EC50: < 50 nM
- Ki: < 1 nM

Structure (SMILES): CC(C)N(C(=O)c1cc(F)ccc1Oc1cncnc1N1CC2(CCN(C[C@@H]3CC[C@@H](NS(=O)(=O)c4ccc(=O)n(C)c4)CO3)CC2)C1)C(C)C [Compound 92, 5-Fluoro-N,N-diisopropyl-2-((4-(7-(((2S,5R)-5-((1-methyl-6-oxo-1,6-dihydropyridine)-3-sulfonamido)tetrahydro-2H-pyran-2-yl)methyl)-2,7-diazaspiro[3.5]nonan-2-yl)pyrimidin-5-yl)oxy)benzamide]
- Ki: < 1 nM

Structure (SMILES): CC(C)N(CC(F)F)C(=O)c1cc(F)ccc1Oc1cncnc1N1CC2(CCN(C[C@@H]3CC[C@@H](NS(C)(=O)=O)CO3)CC2)C1 [Compound 96, N-(2,2-Difluoroethyl)-5-fluoro-N-isopropyl-2-((4-(7-(((2S,5R)-5-(methylsulfonamido)tetrahydro-2H-pyran-2-yl)methyl)-2,7-diazaspiro[3.5]nonan-2-yl)pyrimidin-5-yl)oxy)benzamide]
- EC50: < 50 nM
- Ki: < 1 nM

Structure (SMILES): CC(C)N(CC(F)F)C(=O)c1cc(F)ccc1Oc1cncnc1N1CC2(CCN(C[C@@H]3CC[C@@H](NS(=O)(=O)C4CCOCC4)CO3)CC2)C1 [Compound 98, N-(2,2-Difluoroethyl)-5-fluoro-N-isopropyl-2-((4-(7-(((2S,5R)-5-((tetrahydro-2H-pyran)-4-sulfonamido)tetrahydro-2H-pyran-2-yl)methyl)-2,7-diazaspiro[3.5]nonan-2-yl)pyrimidin-5-yl)oxy)benzamide]
- EC50: < 50 nM
- Ki: < 1 nM

Structure (SMILES): CCn1cc(S(=O)(=O)N[C@@H]2CC[C@@H](CN3CCC4(CC3)CN(c3ncncc3Oc3ccc(F)cc3C(=O)N(CC(F)F)C(C)C)C4)OC2)cn1 [Compound 106, N-(2,2-Difluoroethyl)-2-((4-(7-(((2S,5R)-5-((1-ethyl-1H-pyrazole)-4-sulfonamido)tetrahydro-2H-pyran-2-yl)methyl)-2,7-diazaspiro[3.5]nonan-2-yl)pyrimidin-5-yl)oxy)-5-fluoro-N-isopropylbenzamide]
- Ki: < 1 nM

Structure (SMILES): CC(C)N(CC(F)(F)F)C(=O)c1cc(F)ccc1Oc1cncnc1N1CC2(CCN(C[C@@H]3CC[C@@H](NS(=O)(=O)N4CCOCC4)CO3)CC2)C1 [Compound 108, 5-Fluoro-N-isopropyl-2-((4-(7-(((2S,5R)-5-(morpholine-4-sulfonamido)tetrahydro-2H-pyran-2-yl)methyl)-2,7-diazaspiro[3.5]nonan-2-yl)pyrimidin-5-yl)oxy)-N-(2,2,2-trifluoroethyl)benzamide]
- EC50: < 50 nM
- Ki: < 1 nM

Structure (SMILES): CC(C)N(CC(F)(F)F)C(=O)c1cc(F)ccc1Oc1cncnc1N1CC2(CCN(C[C@@H]3CC[C@@H](NS(=O)(=O)C(C)C)CO3)CC2)C1 [Compound 109, 5-Fluoro-N-isopropyl-2-((4-(7-(((2S,5R)-5-((1-methylethyl)sulfonamido)tetrahydro-2H-pyran-2-yl)methyl)-2,7-diazaspiro[3.5]nonan-2-yl)pyrimidin-5-yl)oxy)-N-(2,2,2-trifluoroethyl)benzamide]
- EC50: < 50 nM
- Ki: < 1 nM

Structure (SMILES): CC(C)N(C(=O)c1cc(F)ccc1Oc1cncnc1N1CC2(CCN(C[C@@H]3CC[C@@H](NS(=O)(=O)C(C)C)CO3)CC2)C1)C1CC(F)(F)C1 [Compound 110, N-(3,3-Difluorocyclobutyl)-5-fluoro-N-isopropyl-2-((4-(7-(((2S,5R)-5-((1-methylethyl)sulfonamido)tetrahydro-2H-pyran-2-yl)methyl)-2,7-diazaspiro[3.5]nonan-2-yl)pyrimidin-5-yl)oxy)benzamide]
- EC50: < 50 nM
- Ki: < 1 nM

Structure (SMILES): CC(C)N(C(=O)c1cc(F)ccc1Oc1cncnc1N1CC2(CCN(C[C@@H]3CC[C@@H](NS(C)(=O)=O)CO3)CC2)C1)C1CC(F)(F)C1 [Compound 112, N-(3,3-Difluorocyclobutyl)-5-fluoro-N-isopropyl-2-((4-(7-(((2S,5R)-5-(methylsulfonamido)tetrahydro-2H-pyran-2-yl)methyl)-2,7-diazaspiro[3.5]nonan-2-yl)pyrimidin-5-yl)oxy)benzamide]
- EC50: < 50 nM
- Ki: < 1 nM

Structure (SMILES): CC(C)N(C(=O)c1cc(F)ccc1Oc1cncnc1N1CC2(CCN(C[C@@H]3CC[C@@H](NS(=O)(=O)C4COC4)CO3)CC2)C1)C1CC(F)(F)C1 [Compound 115, N-(3,3-Difluorocyclobutyl)-5-fluoro-N-isopropyl-2-((4-(7-(((2S,5R)-5-(oxetane-3-sulfonamido)tetrahydro-2H-pyran-2-yl)methyl)-2,7-diazaspiro[3.5]nonan-2-yl)pyrimidin-5-yl)oxy)benzamide]
- EC50: < 50 nM
- Ki: < 1 nM

Structure (SMILES): CC(C)N(C(=O)c1cc(F)ccc1Oc1cncnc1N1CC2(CCN(C[C@@H]3CC[C@@H](NS(=O)(=O)N4CCOCC4)CO3)CC2)C1)C1CC(F)(F)C1 [Compound 116, N-(3,3-Difluorocyclobutyl)-5-fluoro-N-isopropyl-2-((4-(7-(((2S,5R)-5-(morpholine-4-sulfonamido)tetrahydro-2H-pyran-2-yl)methyl)-2,7-diazaspiro[3.5]nonan-2-yl)pyrimidin-5-yl)oxy)benzamide]
- EC50: < 50 nM
- Ki: < 1 nM

Structure (SMILES): CC(C)N(C(=O)c1cc(F)ccc1Oc1cncnc1N1CC2(CCN(C[C@@H]3CC[C@@H](NS(N)(=O)=O)CO3)CC2)C1)C1CC(F)(F)C1 [Compound 117, N-(3,3-Difluorocyclobutyl)-5-fluoro-N-isopropyl-2-((4-(7-(((2S,5R)-5-(sulfamoylamino)tetrahydro-2H-pyran-2-yl)methyl)-2,7-diazaspiro[3.5]nonan-2-yl)pyrimidin-5-yl)oxy)benzamide]
- EC50: < 50 nM
- Ki: < 1 nM

Structure (SMILES): C[C@@H]1COC[C@@H](C)N1C(=O)c1cc(F)ccc1Oc1cncnc1N1CC2(CCN(C[C@@H]3CC[C@@H](NS(=O)(=O)N4CCCC4)CO3)CC2)C1 [Compound 124, N-((3R,6S)-6-((2-(5-(2-((3R,5R)-3,5-Dimethylmorpholine-4-carbonyl)-4-fluorophenoxy)pyrimidin-4-yl)-2,7-diazaspiro[3.5]nonan-7-yl)methyl)tetrahydro-2H-pyran-3-yl)pyrrolidine-1-sulfonamide]
- Ki: < 1 nM

Structure (SMILES): C[C@@H]1COC[C@@H](C)N1C(=O)c1cc(F)ccc1Oc1cncnc1N1CC2(CCN(C[C@@H]3CC[C@@H](NS(=O)(=O)c4cnn(C)c4)CO3)CC2)C1 [Compound 126]
- Ki: < 1 nM

Structure (SMILES): C[C@@H]1COC[C@@H](C)N1C(=O)c1cc(F)ccc1Oc1cncnc1N1CC2(CCN(C[C@@H]3CC[C@@H](NS(=O)(=O)c4ccn(C)n4)CO3)CC2)C1 [Compound 127]
- Ki: < 1 nM

Structure (SMILES): CCN(C)S(=O)(=O)N[C@@H]1CC[C@@H](CN2CCC3(CC2)CN(c2ncncc2Oc2ccc(F)cc2C(=O)N2[C@H](C)COC[C@H]2C)C3)OC1 [Compound 128, {[(3R,6S)-6-{[2-(5-{2-[(3R,5R)-3,5-Dimethylmorpholine-4-carbonyl]-4-fluorophenoxy}pyrimidin-4-yl)-2,7-diazaspiro[3.5]nonan-7-yl]methyl}oxan-3-yl]sulfamoyl}(ethyl)methylamine]
- Ki: < 1 nM

Structure (SMILES): C[C@@H]1COC[C@@H](C)N1C(=O)c1cc(F)ccc1Oc1cncnc1N1CC2(CCN(C[C@@H]3CC[C@@H](NS(=O)(=O)N(C)C4CC4)CO3)CC2)C1 [Compound 129, N-{[(3R,6S)-6-{[2-(5-{2-[(3R,5R)-3,5-Dimethylmorpholine-4-carbonyl]-4-fluorophenoxy}pyrimidin-4-yl)-2,7-diazaspiro[3.5]nonan-7-yl]methyl}oxan-3-yl]sulfamoyl}-N-methylcyclopropanamine]
- Ki: < 1 nM

Structure (SMILES): Cc1nc(S(=O)(=O)N[C@@H]2CC[C@@H](CN3CCC4(CC3)CN(c3ncncc3Oc3ccc(F)cc3C(=O)N3[C@H](C)COC[C@@H]3C)C4)OC2)cs1 [Compound 131, N-((3R,6S)-6-((2-(5-(2-((3S,5R)-3,5-Dimethylmorpholine-4-carbonyl)-4-fluorophenoxy)pyrimidin-4-yl)-2,7-diazaspiro[3.5]nonan-7-yl)methyl)tetrahydro-2H-pyran-3-yl)-2-methylthiazole-4-sulfonamide]
- Ki: < 1 nM

From patent US11919901B2 (Syndax Pharmaceuticals, Inc., priority 2021, dated 2024)
